Reference: the kinase profiling compilation of Christmann-Franck et al. (2016)

Experiments:
Assay in all cases: SelectScreen, TR FRET
Conditions in all cases: compound 10.0 µM
PRKCB1 (human) = PRKCB1 (human) (UniProt P05771)
RIPK2 (human) = RIPK2 (human) (UniProt O43353)
ERBB4 (human) = ERBB4 (human) (UniProt Q15303)
MAPK10 (human) = MAPK10 (human) (UniProt P53779)
MAPK1 (human) = MAPK1 (human) (UniProt P28482)
AKT1 (human) = AKT1 (human) (UniProt P31749)
DYRK1B (human) = DYRK1B (human) (UniProt Q9Y463)
CDK1 CCNB1 (human) = CDK1 CCNB1 (human) (UniProt P06493+P14635)
INSR (human) = INSR (human) (UniProt P06213)
Sequence of INSR (human) (P06213 whole entry, looked up): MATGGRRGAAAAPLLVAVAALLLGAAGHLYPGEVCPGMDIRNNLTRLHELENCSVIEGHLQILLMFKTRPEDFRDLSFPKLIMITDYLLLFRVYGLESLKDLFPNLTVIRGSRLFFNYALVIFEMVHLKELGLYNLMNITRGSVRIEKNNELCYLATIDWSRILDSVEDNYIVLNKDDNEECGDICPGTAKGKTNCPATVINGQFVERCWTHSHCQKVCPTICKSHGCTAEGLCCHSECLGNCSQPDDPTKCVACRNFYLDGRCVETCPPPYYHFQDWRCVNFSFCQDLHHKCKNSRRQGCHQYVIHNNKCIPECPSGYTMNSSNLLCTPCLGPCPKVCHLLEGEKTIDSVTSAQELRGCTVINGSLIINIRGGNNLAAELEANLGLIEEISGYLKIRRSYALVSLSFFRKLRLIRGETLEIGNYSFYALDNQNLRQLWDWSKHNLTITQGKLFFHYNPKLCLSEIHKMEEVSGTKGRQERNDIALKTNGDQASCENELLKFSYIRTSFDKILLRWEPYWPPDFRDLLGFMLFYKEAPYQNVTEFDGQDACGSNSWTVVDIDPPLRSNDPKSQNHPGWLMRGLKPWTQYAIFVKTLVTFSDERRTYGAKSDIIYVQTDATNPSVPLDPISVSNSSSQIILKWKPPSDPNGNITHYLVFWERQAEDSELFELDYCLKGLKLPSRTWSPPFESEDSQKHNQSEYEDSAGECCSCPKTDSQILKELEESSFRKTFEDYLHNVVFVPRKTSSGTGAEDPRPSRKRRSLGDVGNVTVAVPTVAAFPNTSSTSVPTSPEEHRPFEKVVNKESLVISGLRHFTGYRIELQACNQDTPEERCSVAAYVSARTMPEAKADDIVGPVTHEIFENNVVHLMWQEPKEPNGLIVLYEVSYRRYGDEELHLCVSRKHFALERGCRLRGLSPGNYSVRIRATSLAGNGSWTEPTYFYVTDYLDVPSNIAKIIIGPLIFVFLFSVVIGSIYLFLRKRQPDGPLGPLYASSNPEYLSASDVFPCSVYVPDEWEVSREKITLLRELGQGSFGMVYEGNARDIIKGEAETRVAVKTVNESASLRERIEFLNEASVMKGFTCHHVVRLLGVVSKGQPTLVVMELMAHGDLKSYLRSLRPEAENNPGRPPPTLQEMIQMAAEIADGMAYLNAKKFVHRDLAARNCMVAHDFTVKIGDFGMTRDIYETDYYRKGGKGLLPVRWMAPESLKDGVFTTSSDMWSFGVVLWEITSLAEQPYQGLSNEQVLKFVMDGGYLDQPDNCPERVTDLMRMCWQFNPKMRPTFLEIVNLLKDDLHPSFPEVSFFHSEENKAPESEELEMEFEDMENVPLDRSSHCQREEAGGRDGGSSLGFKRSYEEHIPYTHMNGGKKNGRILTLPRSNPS

PLK3 (human) = PLK3 (human) (UniProt Q9H4B4)
Sequence of PLK3 (human) (Q9H4B4 whole entry, looked up): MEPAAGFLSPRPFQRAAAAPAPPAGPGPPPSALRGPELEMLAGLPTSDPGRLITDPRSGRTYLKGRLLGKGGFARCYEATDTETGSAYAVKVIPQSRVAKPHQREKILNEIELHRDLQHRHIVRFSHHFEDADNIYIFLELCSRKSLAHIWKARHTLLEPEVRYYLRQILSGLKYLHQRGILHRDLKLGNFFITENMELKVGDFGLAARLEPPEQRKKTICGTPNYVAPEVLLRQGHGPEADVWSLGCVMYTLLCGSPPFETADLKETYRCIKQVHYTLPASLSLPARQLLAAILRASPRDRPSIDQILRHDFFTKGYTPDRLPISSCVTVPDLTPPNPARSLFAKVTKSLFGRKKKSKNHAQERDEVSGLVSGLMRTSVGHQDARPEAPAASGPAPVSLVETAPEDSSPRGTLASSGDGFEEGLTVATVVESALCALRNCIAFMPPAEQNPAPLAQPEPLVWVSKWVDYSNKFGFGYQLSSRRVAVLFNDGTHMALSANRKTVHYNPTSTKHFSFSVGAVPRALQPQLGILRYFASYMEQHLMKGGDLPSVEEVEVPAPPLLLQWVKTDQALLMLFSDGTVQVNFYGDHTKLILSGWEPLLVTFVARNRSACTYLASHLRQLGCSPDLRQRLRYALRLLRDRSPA

CLK1 (human) = CLK1 (human) (UniProt P49759)
CDK2 CCNA2 (human) = CDK2 CCNA2 (human) (UniProt P24941+P20248)
PIK3CA PIK3R1 (human) = PIK3CA PIK3R1 (human) (UniProt P27986+P42336)
IRAK4 (human) = IRAK4 (human) (UniProt Q9NWZ3)
CAMK2A (human) = CAMK2A (human) (UniProt Q9UQM7)
Sequence of CAMK2A (human) (Q9UQM7 whole entry, looked up): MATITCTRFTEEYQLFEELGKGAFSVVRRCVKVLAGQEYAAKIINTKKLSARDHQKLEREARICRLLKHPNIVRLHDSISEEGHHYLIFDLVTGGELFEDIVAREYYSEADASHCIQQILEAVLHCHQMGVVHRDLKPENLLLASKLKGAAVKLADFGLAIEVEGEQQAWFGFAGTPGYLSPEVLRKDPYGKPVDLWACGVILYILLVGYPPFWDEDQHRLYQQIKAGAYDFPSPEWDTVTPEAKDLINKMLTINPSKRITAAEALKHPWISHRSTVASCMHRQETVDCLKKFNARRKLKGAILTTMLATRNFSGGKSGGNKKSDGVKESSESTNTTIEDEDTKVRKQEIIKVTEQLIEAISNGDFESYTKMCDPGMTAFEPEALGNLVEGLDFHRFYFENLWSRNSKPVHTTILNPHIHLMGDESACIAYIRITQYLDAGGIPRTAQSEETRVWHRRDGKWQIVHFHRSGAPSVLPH

STK16 (human) = STK16 (human) (UniProt O75716)
CDK5 CDK5R1 p25 (human) = CDK5 CDK5R1 p25 (human) (UniProt Q15078+Q00535)
PLK1 (human) = PLK1 (human) (UniProt P53350)
Sequence of PLK1 (human) (P53350 whole entry, looked up): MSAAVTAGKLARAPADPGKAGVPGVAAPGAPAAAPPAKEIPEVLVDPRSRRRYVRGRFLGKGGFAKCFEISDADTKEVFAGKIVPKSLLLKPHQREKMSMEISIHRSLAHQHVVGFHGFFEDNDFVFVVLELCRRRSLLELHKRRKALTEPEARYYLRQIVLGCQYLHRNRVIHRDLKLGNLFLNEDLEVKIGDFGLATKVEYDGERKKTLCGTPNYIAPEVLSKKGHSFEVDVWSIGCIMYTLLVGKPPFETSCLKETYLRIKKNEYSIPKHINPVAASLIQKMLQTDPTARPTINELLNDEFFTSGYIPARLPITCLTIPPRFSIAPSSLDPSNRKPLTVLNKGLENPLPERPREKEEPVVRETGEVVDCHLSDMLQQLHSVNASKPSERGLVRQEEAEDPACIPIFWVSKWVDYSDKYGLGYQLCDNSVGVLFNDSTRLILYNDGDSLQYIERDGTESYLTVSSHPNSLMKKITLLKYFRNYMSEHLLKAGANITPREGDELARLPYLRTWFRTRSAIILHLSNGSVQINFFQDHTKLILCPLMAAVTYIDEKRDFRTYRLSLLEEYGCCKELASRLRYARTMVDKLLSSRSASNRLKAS

PRKACA (human) = PRKACA (human) (UniProt P17612)
RAF1 (human) = RAF1 (human) (UniProt P04049)
PLK2 (human) = PLK2 (human) (UniProt Q9NYY3)
GSK3B (human) = GSK3B (human) (UniProt P49841)

Sequence of AKT1 (human) (P31749 whole entry, looked up): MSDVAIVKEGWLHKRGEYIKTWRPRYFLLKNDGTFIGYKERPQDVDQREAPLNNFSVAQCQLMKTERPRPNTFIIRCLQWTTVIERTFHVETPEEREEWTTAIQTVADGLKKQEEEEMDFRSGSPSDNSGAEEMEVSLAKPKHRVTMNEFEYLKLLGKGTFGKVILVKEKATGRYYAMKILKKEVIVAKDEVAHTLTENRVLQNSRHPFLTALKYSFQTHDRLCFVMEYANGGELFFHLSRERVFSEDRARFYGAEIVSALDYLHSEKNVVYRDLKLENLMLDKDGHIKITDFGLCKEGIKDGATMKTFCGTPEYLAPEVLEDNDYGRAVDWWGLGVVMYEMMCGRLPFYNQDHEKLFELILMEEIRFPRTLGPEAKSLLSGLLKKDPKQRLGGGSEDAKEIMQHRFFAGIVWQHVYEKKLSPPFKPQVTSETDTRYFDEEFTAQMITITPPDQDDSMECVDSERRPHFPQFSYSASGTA
Sequence of ERBB4 (human) (Q15303 whole entry, looked up): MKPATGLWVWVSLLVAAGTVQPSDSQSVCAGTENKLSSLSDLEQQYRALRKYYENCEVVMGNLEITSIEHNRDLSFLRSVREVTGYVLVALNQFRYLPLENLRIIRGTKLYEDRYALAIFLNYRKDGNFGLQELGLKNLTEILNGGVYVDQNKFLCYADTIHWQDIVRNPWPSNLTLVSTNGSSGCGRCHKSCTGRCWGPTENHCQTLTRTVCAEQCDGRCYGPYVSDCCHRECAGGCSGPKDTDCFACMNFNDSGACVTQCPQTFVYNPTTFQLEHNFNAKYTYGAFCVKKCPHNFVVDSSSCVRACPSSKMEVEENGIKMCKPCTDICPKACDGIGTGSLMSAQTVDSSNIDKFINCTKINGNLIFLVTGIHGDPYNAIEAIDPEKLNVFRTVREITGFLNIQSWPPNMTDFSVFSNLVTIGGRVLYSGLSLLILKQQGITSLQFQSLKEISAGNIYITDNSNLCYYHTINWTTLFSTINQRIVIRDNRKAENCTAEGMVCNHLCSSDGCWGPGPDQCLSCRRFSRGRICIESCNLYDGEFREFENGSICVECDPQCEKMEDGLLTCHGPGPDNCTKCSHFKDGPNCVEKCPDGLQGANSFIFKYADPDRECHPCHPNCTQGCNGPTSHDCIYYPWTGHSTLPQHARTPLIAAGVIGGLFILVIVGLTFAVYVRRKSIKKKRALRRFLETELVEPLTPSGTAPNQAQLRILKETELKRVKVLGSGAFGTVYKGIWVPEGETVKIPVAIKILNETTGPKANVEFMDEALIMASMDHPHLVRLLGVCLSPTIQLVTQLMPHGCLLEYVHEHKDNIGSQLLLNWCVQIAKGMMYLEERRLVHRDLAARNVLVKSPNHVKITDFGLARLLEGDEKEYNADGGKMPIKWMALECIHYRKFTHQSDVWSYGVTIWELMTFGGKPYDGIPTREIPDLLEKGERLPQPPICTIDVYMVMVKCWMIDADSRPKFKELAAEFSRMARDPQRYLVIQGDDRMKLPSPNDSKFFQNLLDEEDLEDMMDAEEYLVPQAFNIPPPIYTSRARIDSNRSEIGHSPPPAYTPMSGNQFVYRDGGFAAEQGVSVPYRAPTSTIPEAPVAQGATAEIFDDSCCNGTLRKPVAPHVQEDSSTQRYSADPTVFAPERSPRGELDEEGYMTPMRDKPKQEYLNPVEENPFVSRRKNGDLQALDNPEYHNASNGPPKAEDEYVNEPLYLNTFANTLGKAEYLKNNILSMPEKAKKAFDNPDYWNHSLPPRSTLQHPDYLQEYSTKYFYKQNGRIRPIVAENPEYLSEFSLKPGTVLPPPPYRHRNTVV

SMILES	inhibition (PRKCB1 (human)) [%]	inhibition (ERBB4 (human)) [%]	inhibition (MAPK10 (human)) [%]	inhibition (MAPK1 (human)) [%]	inhibition (AKT1 (human)) [%]	inhibition (DYRK1B (human)) [%]	inhibition (CDK1 CCNB1 (human)) [%]	inhibition (INSR (human)) [%]	inhibition (PLK3 (human)) [%]	inhibition (CLK1 (human)) [%]	inhibition (PIK3CA PIK3R1 (human)) [%]	inhibition (CAMK2A (human)) [%]	inhibition (CDK5 CDK5R1 p25 (human)) [%]	inhibition (PLK1 (human)) [%]	inhibition (PRKACA (human)) [%]	inhibition (RAF1 (human)) [%]	inhibition (PLK2 (human)) [%]	inhibition (GSK3B (human)) [%]	further results
C[C@@H](Nc1c(C(N)=O)nnc2cc(-c3ccc(S(C)(=O)=O)cc3)ccc12)C1CC1	0.123	11.7	20.5	-52.2	4.06	2.7	-2.77	0.279	4.63	5.47	9.68	14.6	-16.4	1.06	-0.763	21.3	17.2	28.6	inhibition (RIPK2 (human)): 28.4%; inhibition (CDK2 CCNA2 (human)): -48.5%; inhibition (IRAK4 (human)): 0.691%; inhibition (STK16 (human)): -47.1%
CC(C)Nc1c(C(N)=O)nnc2ccc(-c3ccncc3)cc12	–	20.6	–	–	–	–	–	13.3	–	–	–	–	–	–	–	–	–	–	–
CC(C)Nc1c(C(N)=O)nnc2cc(-c3ccncc3)ccc12	–	22.3	–	22.7	12.7	–	–	–	-0.393	–	–	13.6	–	33.4	–	–	–	–	–
CC(C)Nc1c(C(N)=O)cnc2cc(-c3ccc(S(C)(=O)=O)cc3)ccc12	8.27	–	4.17	–	4.75	9.19	1.38	3.68	0.957	1.75	-1.65	-0.0898	2.45	0.631	5.91	16.7	7.12	6.45	–
